In patent US20230158157A1, “POTENT AND SELECTIVE DEGRADERS OF ALK” (DANA-FARBER CANCER INSTITUTE, INC., priority 2020, published 2023):
Where two headings read alike, the source gives them in different places.

Legend:
Type in all cases: cell-based
[1] = tested on: H3122 cells; assay: CTG; conditions: Table 3, read-out: CTG IC50
[2] = biological target: T1, FAK (Homo sapiens, UniProt Q05397); assay: FAK degradation (H3122 cells); conditions: for Dmax: NCI-H3122, Table 3
T1 construct: FAK Degradation; endogenous in cells; host or cells: H3122
T1 sequence (Q05397 whole entry): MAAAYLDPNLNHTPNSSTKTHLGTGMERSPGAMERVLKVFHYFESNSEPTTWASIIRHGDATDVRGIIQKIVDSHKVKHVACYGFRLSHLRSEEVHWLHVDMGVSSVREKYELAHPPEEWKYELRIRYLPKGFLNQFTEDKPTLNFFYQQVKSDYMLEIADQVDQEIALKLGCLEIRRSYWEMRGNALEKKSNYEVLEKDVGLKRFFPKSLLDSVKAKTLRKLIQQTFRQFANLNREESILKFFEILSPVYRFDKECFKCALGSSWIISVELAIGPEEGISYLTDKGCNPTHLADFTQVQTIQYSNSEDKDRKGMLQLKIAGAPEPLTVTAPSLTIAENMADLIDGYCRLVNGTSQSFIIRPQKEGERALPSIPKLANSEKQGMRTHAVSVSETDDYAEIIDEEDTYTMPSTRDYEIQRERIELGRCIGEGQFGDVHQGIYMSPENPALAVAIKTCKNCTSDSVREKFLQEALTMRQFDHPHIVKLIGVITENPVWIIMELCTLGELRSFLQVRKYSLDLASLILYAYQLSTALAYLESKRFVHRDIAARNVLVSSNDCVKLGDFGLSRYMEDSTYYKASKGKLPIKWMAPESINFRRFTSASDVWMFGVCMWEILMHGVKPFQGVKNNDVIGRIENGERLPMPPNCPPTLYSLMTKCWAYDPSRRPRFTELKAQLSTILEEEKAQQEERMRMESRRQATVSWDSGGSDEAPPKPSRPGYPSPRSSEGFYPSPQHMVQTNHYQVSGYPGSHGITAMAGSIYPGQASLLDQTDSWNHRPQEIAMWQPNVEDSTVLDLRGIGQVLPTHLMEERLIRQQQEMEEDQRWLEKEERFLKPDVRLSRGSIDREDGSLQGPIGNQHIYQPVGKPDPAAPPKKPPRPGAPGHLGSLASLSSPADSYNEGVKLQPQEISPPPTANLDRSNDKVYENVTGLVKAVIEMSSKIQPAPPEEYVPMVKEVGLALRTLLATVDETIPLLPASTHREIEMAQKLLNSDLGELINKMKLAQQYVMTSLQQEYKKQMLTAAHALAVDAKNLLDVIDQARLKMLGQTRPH

[3] = biological target: T2, EML4-ALK (Homo sapiens, UniProt Q9UM73); assay: EML4-ALK HiBit degradation assay in CRISPR-tagged H3122 cells (Nano-Glo HiBit Lytic Detection); conditions: Table 3, H3122 cells, 16 hours; for Dmax: NCI-H3122, read-out: ALK Degradation (H3122 cells) Dmax; for DC50: read-out: ALK Degradation (H3122 cells) DC50
T2 construct: endogenous in cells; host or cells: H3122 (NSCLC), single-cell clone after CRISPR knock-in of HiBit; the other entry of the earlier key: EML4 (Q9HC35, Echinoderm microtubule-associated protein-like 4)
T2 sequence (Q9UM73 with tags, fused parts or gaps): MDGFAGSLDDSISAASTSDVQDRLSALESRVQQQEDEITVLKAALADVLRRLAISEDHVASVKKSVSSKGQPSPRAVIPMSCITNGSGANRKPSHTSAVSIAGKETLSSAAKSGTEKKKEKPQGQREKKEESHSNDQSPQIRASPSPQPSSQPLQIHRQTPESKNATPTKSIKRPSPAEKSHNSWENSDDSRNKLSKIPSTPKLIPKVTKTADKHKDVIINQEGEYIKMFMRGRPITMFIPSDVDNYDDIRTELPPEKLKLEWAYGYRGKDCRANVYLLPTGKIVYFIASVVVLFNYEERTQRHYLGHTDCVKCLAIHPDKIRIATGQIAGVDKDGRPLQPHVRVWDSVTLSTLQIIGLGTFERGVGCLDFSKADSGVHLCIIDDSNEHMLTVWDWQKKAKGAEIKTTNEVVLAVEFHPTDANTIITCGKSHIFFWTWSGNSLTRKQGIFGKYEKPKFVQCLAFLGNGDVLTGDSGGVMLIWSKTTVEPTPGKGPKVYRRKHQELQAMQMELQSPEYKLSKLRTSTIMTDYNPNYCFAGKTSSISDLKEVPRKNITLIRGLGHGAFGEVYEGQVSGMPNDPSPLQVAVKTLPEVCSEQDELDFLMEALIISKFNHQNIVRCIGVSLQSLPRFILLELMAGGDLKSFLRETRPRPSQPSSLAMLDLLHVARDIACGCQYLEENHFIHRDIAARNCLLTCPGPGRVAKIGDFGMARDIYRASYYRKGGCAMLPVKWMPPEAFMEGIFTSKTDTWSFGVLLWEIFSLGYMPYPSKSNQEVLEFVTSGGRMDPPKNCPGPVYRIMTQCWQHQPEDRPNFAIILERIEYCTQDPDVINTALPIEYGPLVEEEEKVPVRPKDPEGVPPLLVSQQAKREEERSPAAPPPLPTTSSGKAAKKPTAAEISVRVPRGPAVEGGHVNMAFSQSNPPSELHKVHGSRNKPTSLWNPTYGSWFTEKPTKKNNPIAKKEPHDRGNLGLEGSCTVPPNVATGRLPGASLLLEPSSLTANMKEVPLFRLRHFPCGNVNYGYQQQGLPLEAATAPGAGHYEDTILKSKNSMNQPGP

| Structure (SMILES) | ALK Degradation (H3122 cells) Dmax [3] [%] | IC50 [1] [nM] | FAK Degradation (H3122 cells) Dmax ([2]; Table 3) [%] | IC50 ([1]; Homo sapiens, NCI-H3122) [nM] | Dmax [2] [%] | DC50 ([2]; Table 3) [nM] | Dmax [3] [%] | DC50 [3] [nM] |
| --- | --- | --- | --- | --- | --- | --- | --- | --- |
| COc1cc(CCNCCCCCC#Cc2ccc3c(c2)CN(C2CCC(=O)NC2=O)C3=O)c(C)cc1Nc1ncc(Cl)c(Nc2ccccc2S(=O)(=O)C(C)C)n1 (stereo not drawn) [compound 92] |  |  |  | 50 | 93 | 4 |  |  |
| COc1cc(C2CCN(CCCCCC#Cc3cccc4c3C(=O)N(C3CCC(=O)NC3=O)C4=O)CC2)c(C)cc1Nc1ncc(Cl)c(Nc2ccccc2S(=O)(=O)C(C)C)n1 (stereo not drawn) [compound 93, 4-(7-(4-(4-((5-chloro-4-((2-(isopropylsulfonyl)phenyl)amino)pyrimidin-2-yl)amino)-5-methoxy-2-methylphenyl)piperidin-1-yl)hept-1-yn-1-yl)-2-(2,6-dioxopiperidin-3-yl)isoindoline-1,3-dione] |  |  |  | 202 | 89 | 24 | 82 | 49 |
| COc1cc(C2CCN(CCCCC#Cc3cccc4c3CN(C3CCC(=O)NC3=O)C4=O)CC2)c(C)cc1Nc1ncc(Cl)c(Nc2ccccc2S(=O)(=O)C(C)C)n1 (stereo not drawn) [compound 95, 3-(4-(6-(4-(4-((5-chloro-4-((2-(isopropylsulfonyl)phenyl)amino)pyrimidin-2-yl)amino)-5-methoxy-2-methylphenyl)piperidin-1-yl)hex-1-yn-1-yl)-1-oxoisoindolin-2-yl)piperidine-2,6-dione] |  |  |  | 4 | 89 | 1 | 73 | 1 |
| COc1cc(C2CCN(CC#Cc3ccc4c(c3)CN(C3CCC(=O)NC3=O)C4=O)CC2)c(C)cc1Nc1ncc(Cl)c(Nc2ccccc2S(=O)(=O)C(C)C)n1 (stereo not drawn) [compound 97, 3-(5-(3-(4-(4-((5-chloro-4-((2-(isopropylsulfonyl)phenyl)amino)pyrimidin-2-yl)amino)-5-methoxy-2-methylphenyl)piperidin-1-yl)prop-1-yn-1-yl)-1-oxoisoindolin-2-yl)piperidine-2,6-dione] |  |  |  |  | 80 | 8 |  |  |
| COc1cc(C2CCN(CCCCCC#Cc3cccc4c3CN(C3CCC(=O)NC3=O)C4=O)CC2)c(C)cc1Nc1ncc(Cl)c(Nc2ccccc2S(=O)(=O)C(C)C)n1 (stereo not drawn) [compound 94, 3-(4-(7-(4-(4-((5-chloro-4-((2-(isopropylsulfonyl)phenyl)amino)pyrimidin-2-yl)amino)-5-methoxy-2-methylphenyl)piperidin-1-yl)hept-1-yn-1-yl)-1-oxoisoindolin-2-yl)piperidine-2,6-dione] |  |  |  |  | 86 |  |  |  |
| COc1cc(N2CCC(NC(=O)CCCCCCCCCC(=O)N[C@H](C(=O)N3C[C@H](O)C[C@H]3C(=O)NCc3ccc(-c4scnc4C)cc3)C(C)(C)C)CC2)ccc1Nc1ncc(Cl)c(Nc2ccccc2P(C)(C)=O)n1 [SIAIS117] | 43 | 42 | 70 |  |  | 10 |  | 9 |
| COc1cc(CCNCCCCCC#Cc2cccc3c2CN(C2CCC(=O)NC2=O)C3=O)c(C)cc1Nc1ncc(Cl)c(Nc2ccccc2S(=O)(=O)C(C)C)n1 (stereo not drawn) [compound 91, 3-(4-(7-((4-((5-chloro-4-((2-(isopropylsulfonyl)phenyl)amino)pyrimidin-2-yl)amino)-5-methoxy-2-methylphenethyl)amino)hept-1-yn-1-yl)-1-oxoisoindolin-2-yl)piperidine-2,6-dione] |  |  |  | 50 | 85 | 4 |  |  |
